The target of the assay is 5-hydroxytryptamine receptor 1A (Sus scrofa). Nature of the assay: Displacement of [3H]8-OH-DPAT from 5HT1A receptor in porcine cortical membrane. (In a radioligand displacement assay an active substance lowers the binding of a labelled ligand.)

Each structure is given as a SMILES string.

Broadly, the Ki is a measure of affinity in units of concentration, obtained from inhibition or displacement.

`Fc1ccc(N2CCN(Cc3cn4ccccc4n3)CC2)cc1` [2-[4-(4-fluorophenyl)piperazin-1-ylmethyl]imidazo[1,2-a]pyridine] showed a Ki of 3.6 µM.

For the origin of these results see BindingDB's records for doi:10.1021/jm060166w (University of Tours, 2006).
